This note sets out measurements from patent US20250221411A1, “SUBSTITUTED BENZAMIDES AS HERBICIDES” (SYNGENTA CROP PROTECTION AG, priority 2021, published 2025).

Format in all cases: in vivo
Common to all, as to settings: 250 g/h, evaluated after 13 days, five-point scale

The subject of test [1] is Abutilon theophrasti (ABUTH). The test can be described thus: Pre-emergence herbicidal glasshouse test, ABUTH. Here is the method: (§1) Seeds of a variety of test species are sown in standard soil in pots Amaranthus retoflexus (AMARE), Abutilon theophrasti (ABUTH), Setaria faberi (SETFA), Echinochloa crus-galli (ECHCG), Ipomoea hederacea (IPOHE)). After cultivation for one day (pre-emergence) or after 8 days cultivation (post-emergence) under controlled conditions in a glasshouse (at 24/16° C., day/night; 14 hours light; 65% humidity), the plants are sprayed with an aqueous spray solution derived from the formulation of the technical active ingredient in acetone/water (50:50) solution containing 0.5% Tween 20 (polyoxyethelyene sorbitan monolaurate, CAS RN 9005-64-5). Compounds are applied at 250 g/h unless otherwise indicated. The test plants are then grown in a glasshouse under controlled conditions in a glasshouse (at 24/16° C., day/night; 14 hours light; 65% humidity) and watered twice daily. After 13 days for pre and post-emergence, the test is evaluated for the percentage damage caused to the plant. The biological activities are shown in the following table on a five-point scale (5=80-100%; 4=60-79%; 3=40-59%; 2=20-39%; 1=0-19%).

Test [2] concerns Abutilon theophrasti (ABUTH). The test can be described thus: Post-emergence herbicidal glasshouse test, ABUTH. Here is the method:
as §1

Test [3] has as its system Amaranthus retoflexus (AMARE). The experiment in a line: Pre-emergence herbicidal glasshouse test, AMARE. Here is the method: as §1
For test [4], the system named is Amaranthus retoflexus (AMARE). The test can be described thus: Post-emergence herbicidal glasshouse test, AMARE. Here is the method:
as §1

Test [5] deals with Setaria faberi (SETFA). The experiment in a line: Pre-emergence herbicidal glasshouse test, SETFA. Here is the method: as §1
Test [6] concerns Echinochloa crus-galli (ECHCG). The test can be described thus: Post-emergence herbicidal glasshouse test, ECHCG. The method, then: as §1
The test system of test [7] is Ipomoea hederacea (IPOHE). The experiment in a line: Post-emergence herbicidal glasshouse test, IPOHE. The method, then: as §1
Test [8] relates to Echinochloa crus-galli (ECHCG). The experiment in a line: Pre-emergence herbicidal glasshouse test, ECHCG. The method, then:
as §1

Test [9] has as its system Setaria faberi (SETFA). The experiment in a line: Post-emergence herbicidal glasshouse test, SETFA. The method, then:
as §1

Test [10] concerns Ipomoea hederacea (IPOHE). The experiment in a line: Pre-emergence herbicidal glasshouse test, IPOHE. The method, then:
as §1

SMILES strings stand for the structures.

For the compound `Cn1nnnc1NC(=O)c1ccc(OC(F)(F)F)c(CNC(=O)c2ccc(F)cc2F)c1Cl` [Compound 1.010], the “percentage damage caused to the plant, PRE Application ABUTH” value in test [1] was 5 (5=80-100%). Moreover, the “percentage damage caused to the plant, POST Application ABUTH” value in [2] is listed as 5 (5=80-100%). Moreover, the “percentage damage caused to the plant, PRE Application AMARE” value in test [3] is on record as 5 (5=80-100%). Besides, in [4], the “percentage damage caused to the plant, POST Application AMARE” value is 5 (5=80-100%). Further, the “percentage damage caused to the plant, PRE Application SETFA” value in [5] is listed as 1 (1=0-19%). The “percentage damage caused to the plant, POST Application ECHCG” value in test [6] was 5 (5=80-100%). Further, the “percentage damage caused to the plant, POST Application IPOHE” value in test [7] is listed as 5 (5=80-100%). In test [8], the “percentage damage caused to the plant, PRE Application ECHCG” value is 1 (1=0-19%). The “percentage damage caused to the plant, POST Application SETFA” value in [9] is 5 (5=80-100%). For the same compound, in test [10], the “percentage damage caused to the plant, PRE Application IPOHE” value was 1 (1=0-19%).
As for `CCC(=O)NCc1c(OC(F)(F)F)ccc(C(=O)Nc2nnnn2C)c1Cl` [Compound 1.003, 2-chloro-N-(1-methyltetrazol-5-yl)-3-[(propanoylamino)methyl]-4-(trifluoromethoxy)benzamide], the “percentage damage caused to the plant, PRE Application ABUTH” value in [1] is recorded as 5 (5=80-100%). Moreover, the “percentage damage caused to the plant, PRE Application AMARE” value in [3] is on record as 5 (5=80-100%). Besides, the “percentage damage caused to the plant, POST Application AMARE” value in test [4] is 5 (5=80-100%). In addition, the “percentage damage caused to the plant, PRE Application SETFA” value in [5] is reported as 4 (4=60-79%). In addition, in test [6], the “percentage damage caused to the plant, POST Application ECHCG” value is 5 (5=80-100%). In [7], the “percentage damage caused to the plant, POST Application IPOHE” value is 5 (5=80-100%). Moreover, the “percentage damage caused to the plant, PRE Application ECHCG” value in test [8] is reported as 1 (1=0-19%). For the same compound, in test [9], the “percentage damage caused to the plant, POST Application SETFA” value is 5 (5=80-100%). In addition, in [10], the “percentage damage caused to the plant, PRE Application IPOHE” value is recorded as 3 (3=40-59%).
Consider `Cn1nnnc1NC(=O)c1ccc(OC(F)(F)F)c(CNC(=O)c2c(F)cccc2F)c1Cl` [Compound 1.008], for which the “percentage damage caused to the plant, PRE Application ABUTH” value in [1] is given as 5 (5=80-100%). Further, the “percentage damage caused to the plant, POST Application ABUTH” value in [2] is recorded as 5 (5=80-100%). Also, in test [3], the “percentage damage caused to the plant, PRE Application AMARE” value is 5 (5=80-100%). The “percentage damage caused to the plant, PRE Application SETFA” value in test [5] is 2 (2=20-39%). Further, the “percentage damage caused to the plant, POST Application ECHCG” value in test [6] was 5 (5=80-100%). Also, the “percentage damage caused to the plant, POST Application IPOHE” value in test [7] was 5 (5=80-100%). Also, in test [8], the “percentage damage caused to the plant, PRE Application ECHCG” value is on record as 2 (2=20-39%). The “percentage damage caused to the plant, POST Application SETFA” value in [9] is recorded as 4 (4=60-79%). For the same compound, in test [10], the “percentage damage caused to the plant, PRE Application IPOHE” value is given as 1 (1=0-19%).
Regarding `CCC(=O)N(C)Cc1c(OC(F)(F)F)ccc(C(=O)Nc2nnnn2C)c1Cl` [Compound 1.001], the “percentage damage caused to the plant, PRE Application ABUTH” value in test [1] is 5 (5=80-100%). In addition, the “percentage damage caused to the plant, POST Application ABUTH” value in [2] is 5 (5=80-100%). In addition, in test [3], the “percentage damage caused to the plant, PRE Application AMARE” value is given as 5 (5=80-100%). For the same compound, the “percentage damage caused to the plant, POST Application AMARE” value in test [4] is reported as 5 (5=80-100%). Moreover, the “percentage damage caused to the plant, PRE Application SETFA” value in test [5] is 3 (3=40-59%). For the same compound, the “percentage damage caused to the plant, POST Application ECHCG” value in [6] was 5 (5=80-100%). For the same compound, the “percentage damage caused to the plant, POST Application IPOHE” value in [7] was 5 (5=80-100%). The “percentage damage caused to the plant, PRE Application ECHCG” value in test [8] is given as 4 (4=60-79%). Besides, the “percentage damage caused to the plant, POST Application SETFA” value in test [9] was 5 (5=80-100%). Also, in [10], the “percentage damage caused to the plant, PRE Application IPOHE” value is 1 (1=0-19%).
`CN(Cc1c(OC(F)(F)F)ccc(C(=O)Nc2nnnn2C)c1Cl)C(=O)C1CC1` [Compound 1.002]: in [1], the “percentage damage caused to the plant, PRE Application ABUTH” value is listed as 3 (3=40-59%). Moreover, in test [2], the “percentage damage caused to the plant, POST Application ABUTH” value is given as 5 (5=80-100%). Besides, the “percentage damage caused to the plant, PRE Application AMARE” value in test [3] is recorded as 1 (1=0-19%). Besides, the “percentage damage caused to the plant, POST Application AMARE” value in [4] is 5 (5=80-100%). Also, in [5], the “percentage damage caused to the plant, PRE Application SETFA” value is listed as 2 (2=20-39%). For the same compound, the “percentage damage caused to the plant, POST Application ECHCG” value in test [6] was 5 (5=80-100%). In [7], the “percentage damage caused to the plant, POST Application IPOHE” value was 5 (5=80-100%). For the same compound, the “percentage damage caused to the plant, PRE Application ECHCG” value in [8] is on record as 2 (2=20-39%). Further, the “percentage damage caused to the plant, POST Application SETFA” value in test [9] was 5 (5=80-100%). Moreover, the “percentage damage caused to the plant, PRE Application IPOHE” value in [10] is on record as 1 (1=0-19%).
On to `CCCC(=O)NCc1c(OC(F)(F)F)ccc(C(=O)Nc2nnnn2CC)c1Cl` [Compound 1.005], for which the “percentage damage caused to the plant, PRE Application ABUTH” value in test [1] was 5 (5=80-100%). Besides, the “percentage damage caused to the plant, POST Application ABUTH” value in [2] is reported as 5 (5=80-100%). Moreover, in test [3], the “percentage damage caused to the plant, PRE Application AMARE” value is 5 (5=80-100%). The “percentage damage caused to the plant, POST Application AMARE” value in [4] was 5 (5=80-100%). The “percentage damage caused to the plant, PRE Application SETFA” value in [5] was 1 (1=0-19%). Also, the “percentage damage caused to the plant, POST Application IPOHE” value in test [7] is given as 5 (5=80-100%). For the same compound, the “percentage damage caused to the plant, PRE Application ECHCG” value in test [8] was 1 (1=0-19%). Moreover, the “percentage damage caused to the plant, POST Application SETFA” value in [9] is on record as 5 (5=80-100%). In test [10], the “percentage damage caused to the plant, PRE Application IPOHE” value was 1 (1=0-19%).
As for `Cn1nnnc1NC(=O)c1ccc(OC(F)(F)F)c(CNC(=O)c2ccc(Cl)cc2)c1Cl` [Compound 1.011], in test [1], the “percentage damage caused to the plant, PRE Application ABUTH” value is 5 (5=80-100%). Besides, the “percentage damage caused to the plant, POST Application ABUTH” value in [2] is 5 (5=80-100%). The “percentage damage caused to the plant, PRE Application AMARE” value in test [3] is listed as 5 (5=80-100%). Besides, the “percentage damage caused to the plant, POST Application AMARE” value in test [4] is recorded as 5 (5=80-100%). Further, the “percentage damage caused to the plant, PRE Application SETFA” value in test [5] is given as 1 (1=0-19%). Moreover, the “percentage damage caused to the plant, POST Application ECHCG” value in [6] is given as 5 (5=80-100%). Besides, in test [7], the “percentage damage caused to the plant, POST Application IPOHE” value was 5 (5=80-100%). The “percentage damage caused to the plant, PRE Application ECHCG” value in [8] was 1 (1=0-19%). Further, the “percentage damage caused to the plant, POST Application SETFA” value in test [9] is listed as 2 (2=20-39%). For the same compound, in test [10], the “percentage damage caused to the plant, PRE Application IPOHE” value was 1 (1=0-19%).
Regarding `CC(=O)NCc1c(OC(F)(F)F)ccc(C(=O)Nc2nnnn2C)c1Cl` [Compound 1.009], the “percentage damage caused to the plant, PRE Application ABUTH” value in [1] is listed as 5 (5=80-100%). The “percentage damage caused to the plant, POST Application ABUTH” value in test [2] is reported as 5 (5=80-100%). Besides, the “percentage damage caused to the plant, PRE Application AMARE” value in [3] is 5 (5=80-100%). In test [4], the “percentage damage caused to the plant, POST Application AMARE” value is recorded as 5 (5=80-100%). In addition, the “percentage damage caused to the plant, PRE Application SETFA” value in [5] was 5 (5=80-100%). Also, in [6], the “percentage damage caused to the plant, POST Application ECHCG” value is on record as 5 (5=80-100%). In test [7], the “percentage damage caused to the plant, POST Application IPOHE” value is 5 (5=80-100%). The “percentage damage caused to the plant, PRE Application ECHCG” value in [8] was 5 (5=80-100%). The “percentage damage caused to the plant, POST Application SETFA” value in test [9] is recorded as 5 (5=80-100%). Also, in test [10], the “percentage damage caused to the plant, PRE Application IPOHE” value is given as 4 (4=60-79%).
